Measurements reported in PubChem BioAssay AID651962 (The Scripps Research Institute Molecular Screening Center, 2012).
Calls of active or inactive are those of the source. The rule behind the calls is not given here.

Biological target: Receptor-interacting serine/threonine-protein kinase 2 (Homo sapiens) (UniProt O43353)
Test: NOD2-RIPK2 binding disruptor potency, late-stage follow-up, cell-based, fluorescence (AID 651962)
Conditions: cell-based NOD2-RIPK2 interaction, fluorescence read-out

Receptor-interacting serine/threonine-protein kinase 2 (Homo sapiens), sequence (O43353 whole entry, looked up): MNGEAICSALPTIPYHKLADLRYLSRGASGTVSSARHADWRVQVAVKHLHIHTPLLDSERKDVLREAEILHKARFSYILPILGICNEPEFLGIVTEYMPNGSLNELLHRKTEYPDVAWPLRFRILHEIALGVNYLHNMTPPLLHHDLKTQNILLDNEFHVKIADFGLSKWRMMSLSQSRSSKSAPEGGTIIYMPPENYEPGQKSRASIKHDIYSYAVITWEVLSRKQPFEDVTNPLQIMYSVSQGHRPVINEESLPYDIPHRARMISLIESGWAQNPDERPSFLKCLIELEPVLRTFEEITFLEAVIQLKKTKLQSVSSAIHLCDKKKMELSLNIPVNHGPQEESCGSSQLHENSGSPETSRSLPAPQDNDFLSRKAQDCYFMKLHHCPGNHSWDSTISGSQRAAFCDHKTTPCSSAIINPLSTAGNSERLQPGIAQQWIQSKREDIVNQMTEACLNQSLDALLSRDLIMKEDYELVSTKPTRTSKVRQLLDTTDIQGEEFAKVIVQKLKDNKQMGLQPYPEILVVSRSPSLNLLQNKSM

| Compound | IC50 |
| --- | --- |
| COc1ccc(C(C[N+](=O)[O-])n2nc(C)cc2C)cc1 (stereo unspecified) | 3.81 µM |
| Cc1ccc(S(=O)(=O)N2CCCCCC2)cc1[N+](=O)[O-] | > 49.8 µM (inactive) |
| O=[N+]([O-])c1cc(S(=O)(=O)N2CCCCCC2)ccc1F | 8.04 µM |
| Cc1ccc(C(C[N+](=O)[O-])n2nc(C)cc2C)cc1 (stereo unspecified) | 2.97 µM |
| Cc1ncc([N+](=O)[O-])n1Cc1ccc(Cl)c(Cl)c1 | > 49.8 µM (inactive) |
| Cc1cc(S(=O)(=O)N2CCCCCC2)ccc1F | > 49.8 µM (inactive) |
| O=S(=O)(c1ccc(F)cc1)N1CCCCCC1 | > 49.8 µM (inactive) |
| O=[N+]([O-])c1cccc(S(=O)(=O)N2CCCCCC2)c1 | > 49.8 µM (inactive) |
| Cc1nc([N+](=O)[O-])c(Br)n1Cc1ccccc1 | inactive |
| O=S(=O)(c1ccccc1)N1CCCCCC1 | > 49.8 µM (inactive) |
| Cc1nc([N+](=O)[O-])c(Br)n1Cc1ccc(Cl)c(Cl)c1 | inactive |
